Results reported in patent US20260184687A1, “DIHYDROINDENE DERIVATIVES AS MALT1 INHIBITORS” (C4X Discovery Limited, priority 2022, published 2026).

target: T1, FL hMALT1 enzyme (Homo sapiens, UniProt Q9UDY8); assay: biochemical; settings: not given;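 further: Cell-free protease assay: enzyme preincubated with compound 30 min at room temperature, then cleavage of fluorogenic Ac-LVSR-AMC substrate (100 µM) tracked by fluorescence (ex 360/em 460 nm)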
T1 sequence (Q9UDY8 1-824): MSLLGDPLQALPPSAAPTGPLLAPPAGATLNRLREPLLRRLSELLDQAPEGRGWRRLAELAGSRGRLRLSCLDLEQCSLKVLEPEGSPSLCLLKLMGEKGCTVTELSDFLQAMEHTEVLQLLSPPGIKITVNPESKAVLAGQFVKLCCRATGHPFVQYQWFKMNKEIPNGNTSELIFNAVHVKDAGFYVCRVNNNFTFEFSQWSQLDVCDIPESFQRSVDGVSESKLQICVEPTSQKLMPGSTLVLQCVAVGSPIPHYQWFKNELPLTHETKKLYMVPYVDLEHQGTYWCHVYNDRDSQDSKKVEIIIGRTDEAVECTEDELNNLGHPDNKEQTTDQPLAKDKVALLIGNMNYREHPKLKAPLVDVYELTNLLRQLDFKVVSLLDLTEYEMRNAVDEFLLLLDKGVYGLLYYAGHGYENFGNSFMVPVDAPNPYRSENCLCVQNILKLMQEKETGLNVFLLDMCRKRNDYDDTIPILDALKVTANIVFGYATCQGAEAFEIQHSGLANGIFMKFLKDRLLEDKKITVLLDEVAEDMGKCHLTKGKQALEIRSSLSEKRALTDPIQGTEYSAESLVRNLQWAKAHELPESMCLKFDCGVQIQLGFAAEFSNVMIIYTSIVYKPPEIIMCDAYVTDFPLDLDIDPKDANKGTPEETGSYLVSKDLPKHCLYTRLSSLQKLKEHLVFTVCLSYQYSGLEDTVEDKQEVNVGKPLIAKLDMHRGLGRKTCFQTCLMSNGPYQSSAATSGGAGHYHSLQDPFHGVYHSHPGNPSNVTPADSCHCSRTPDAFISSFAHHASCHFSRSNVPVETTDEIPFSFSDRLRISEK

SMILES	IC50 [nM]
CN(C(=O)C1(NS(C)(=O)=O)CC1)[C@@H](c1ccc(NC2Cc3ccc(Cl)c(F)c3C2)cn1)C(F)(F)F (stereo partly drawn) [Example 290, N-((1S)-1-(5-((5-Chloro-4-fluoro-2,3-dihydro-1H-inden-2-yl)amino)pyridin-2-yl)-2,2,2-trifluoroethyl)-N-methyl-1-(methylsulfonamido)-cyclopropane-1-carboxamide]	120
CN(C(=O)C1CCS(=O)(=O)CC1)[C@@H](c1ccc(NC2Cc3cc(Cl)c(OC(F)F)cc3C2)cn1)C(F)(F)F (stereo partly drawn) [Example 291, N-((1S)-1-(5-((5-Chloro-6-(difluoromethoxy)-2,3-dihydro-1H-inden-2-yl)amino)pyridin-2-yl)-2,2,2-trifluoroethyl)-N-methyltetrahydro-2H-thiopyran-4-carboxamide 1,1-dioxide]	340
CNC(=O)C12C3C4C1C1C2C3C41C(=O)N(C)[C@@H](c1ccc(NC2Cc3ccc(Cl)cc3C2)cn1)C(F)(F)F (stereo partly drawn) [Example 292, N^1-((1S)-1-(5-((5-Chloro-2,3-dihydro-1H-inden-2-yl)amino)pyridin-2-yl)-2,2,2-trifluoroethyl)-N^1,N^4-dimethylcubane-1,4-dicarboxamide]	840
CN(C(=O)C1CNC(=O)O1)[C@@H](c1ccc(N[C@H]2Cc3ccc(Cl)cc3C2)cn1)C(F)(F)F (stereo partly drawn) [Example 303, N—((S)-1-(5-(((S)-5-Chloro-2,3-dihydro-1H-inden-2-yl)amino)pyridin-2-yl)-2,2,2-trifluoroethyl)-N-methyl-2-oxooxazolidine-5-carboxamide]	190
CN(C(=O)C1CCS(=O)(=O)CC1)[C@@H](c1ccc(NC2Cc3cc(F)c(Br)cc3C2)cn1)C(F)(F)F (stereo partly drawn) [Example 310, N-((1S)-1-(5-((5-Bromo-6-fluoro-2,3-dihydro-1H-inden-2-yl)amino)pyridin-2-yl)-2,2,2-trifluoroethyl)-N-methyltetrahydro-2H-thiopyran-4-carboxamide 1,1-dioxide]	430
CN(C(=O)C1CCS(=O)(=O)CC1)[C@@H](c1ccc(NC2Cc3ccc(OC(F)F)cc3C2)cn1)C(F)(F)F (stereo partly drawn) [Example 324, N-((1S)-1-(5-((5-(Difluoromethoxy)-2,3-dihydro-1H-inden-2-yl)amino)pyridin-2-yl)-2,2,2-trifluoroethyl)-N-methyltetrahydro-2H-thiopyran-4-carboxamide 1,1-dioxide]	1000
CN(C(=O)C1CCS(=O)(=O)CC1)[C@@H](c1ccc(NC2Cc3cccc(OC(F)F)c3C2)cn1)C(F)(F)F (stereo partly drawn) [Example 333, N-((1S)-1-(5-((4-(Difluoromethoxy)-2,3-dihydro-1H-inden-2-yl)amino)pyridin-2-yl)-2,2,2-trifluoroethyl)-N-methyltetrahydro-2H-thiopyran-4-carboxamide 1,1-dioxide]	160
CN(C(=O)C1CS(=O)(=O)C1)[C@@H](c1ccc(NC2Cc3ccc(Cl)c(Cl)c3C2)cn1)C(F)(F)F (stereo partly drawn) [Example 355, N-((1S)-1-(5-((4,5-Dichloro-2,3-dihydro-1H-inden-2-yl)amino)pyridin-2-yl)-2,2,2-trifluoroethyl)-N-methylthietane-3-carboxamide 1,1-dioxide]	150
COCc1c(Cl)ccc2c1CC(Nc1ccc([C@H](N(C)C(=O)C3CCS(=O)(=O)CC3)C(F)(F)F)nc1)C2 (stereo partly drawn) [Example 356, N-((1S)-1-(5-((5-Chloro-4-(methoxymethyl)-2,3-dihydro-1H-inden-2-yl)amino)pyridin-2-yl)-2,2,2-trifluoroethyl)-N-methyltetrahydro-2H-thiopyran-4-carboxamide 1,1-dioxide]	210
CNC(=O)[C@H]1C[C@H](C(=O)N(C)[C@@H](c2ccc(NC3Cc4ccc(Cl)c(Cl)c4C3)cn2)C(F)(F)F)C1 (stereo partly drawn) [Example 363, (1,3-trans)-N^1-((1S)-1-(5-((4,5-Dichloro-2,3-dihydro-1H-inden-2-yl)amino)pyridin-2-yl)-2,2,2-trifluoroethyl)-N^1,N^3-dimethylcyclobutane-1,3-dicarboxamide]	70
CNC(=O)C1(C(=O)N(C)[C@@H](c2ccc(NC3Cc4ccc(Cl)c(F)c4C3)cn2)C(F)(F)F)CC1 (stereo partly drawn) [Example 368, N-((1S)-1-(5-((5-Chloro-4-fluoro-2,3-dihydro-1H-inden-2-yl)amino)pyridin-2-yl)-2,2,2-trifluoroethyl)-N,N′-dimethylcyclopropane-1,1-dicarboxamide]	270
CC(C)c1c(Cl)ccc2c1CC(Nc1ccc([C@H](N(C)C(=O)C3CCS(=O)(=O)CC3)C(F)(F)F)nc1)C2 (stereo partly drawn) [Example 369, N-((1S)-1-(5-((5-Chloro-4-isopropyl-2,3-dihydro-1H-inden-2-yl)amino)pyridin-2-yl)-2,2,2-trifluoroethyl)-N-methyltetrahydro-2H-thiopyran-4-carboxamide 1,1-dioxide]	72

test system: IL-2 release from stimulated Jurkat cells; assay: Human IL-2 Release Phenotypic Assay (Assay 3); format: cell-based; settings: Homo sapiens, Jurkat, 48 h, Jurkat cells (clone E6-1), 200 ng/mL PMA + 300 ng/mL ionomycin, IL-2 by ELISA
Description: This assay measured the inhibition by MALT1 inhibitors of the IL-2 release from stimulated Jurkat cells, a human immortalized T lymphocyte cell line. IL-2 production from Jurkat cells is regulated by activation of NFκB signalling, which is in turn regulated by MALT1 protease activity.
Jurkat cells (clone E6-1, ATCC) were cultured in RPMI1640 supplemented with 10% (v/v) FBS and 1% (v/v) penicillin/streptomycin (100× liquid stocks). Cells were seeded in 96-well white tissue culture-treated plates (Perkin Elmer) at 50 000 cells/well and incubated overnight at 37° C., 5% CO2. Test compounds in DMSO at half-log dilutions were added to the cells and incubated for 30 mins. Final DMSO concentration was 0.5%. Cells were then stimulated with 200 ng/mL PMA+300 ng/mL ionomycin and incubated for 48 hours. […] IC50 values were calculated using GraphPad Prism using 4-parameter non-linear regression curve fit.

SMILES	IC50 [nM]
CN(C(=O)C1CCS(=O)(=O)CC1)[C@@H](c1ccc(NC2Cc3ccccc3C2)cc1)C(F)(F)F [Example 3, (S)—N-(1-(4-((2,3-Dihydro-1H-inden-2-yl)amino)phenyl)-2,2,2-trifluoroethyl)-N-methyltetrahydro-2H-thiopyran-4-carboxamide 1,1-dioxide]	1940
CN(C(=O)[C@@H]1CNC(=O)C1)[C@@H](c1ccc(N[C@H]2Cc3ccccc3C2(C)C)cn1)C(F)(F)F [Example 160, (S)—N—((S)-1-(5-(((S)-1,1-Dimethyl-2,3-dihydro-1H-inden-2-yl)amino)pyridin-2-yl)-2,2,2-trifluoroethyl)-N-methyl-5-oxopyrrolidine-3-carboxamide]	180
CN(C(=O)[C@H]1CNC(=O)C1)[C@@H](c1ccc(N[C@H]2Cc3ccccc3C2(C)C)cn1)C(F)(F)F [Example 166, (R)—N—((S)-1-(5-(((S)-1,1-Dimethyl-2,3-dihydro-1H-inden-2-yl)amino)pyridin-2-yl)-2,2,2-trifluoroethyl)-N-methyl-5-oxopyrrolidine-3-carboxamide]	510
CC(=O)N1CC[C@H](C(=O)N(C)[C@@H](c2ccc(N[C@H]3Cc4ccccc4C3(C)C)cn2)C(F)(F)F)C1 [Example 169, (S)-1-Acetyl-N—((S)-1-(5-(((S)-1,1-dimethyl-2,3-dihydro-1H-inden-2-yl)amino)pyridin-2-yl)-2,2,2-trifluoroethyl)-N-methylpyrrolidine-3-carboxamide]	720
CN(C(=O)[C@@H]1CCC(=O)N1)[C@@H](c1ccc(N[C@H]2Cc3ccccc3C2(C)C)cn1)C(F)(F)F [Example 170, (S)—N—((S)-1-(5-(((S)-1,1-Dimethyl-2,3-dihydro-1H-inden-2-yl)amino)pyridin-2-yl)-2,2,2-trifluoroethyl)-N-methyl-5-oxopyrrolidine-2-carboxamide]	210
CC(=O)N[C@H]1C[C@@H](C(=O)N(C)[C@@H](c2ccc(N[C@H]3Cc4ccccc4C3(C)C)cn2)C(F)(F)F)C1 [Example 182, (1,3-cis)-3-Acetamido-N—((S)-1-(5-(((S)-1,1-dimethyl-2,3-dihydro-1H-inden-2-yl)amino)pyridin-2-yl)-2,2,2-trifluoroethyl)-N-methylcyclobutane-1-carboxamide]	400

same assay, conditions: Jurkat cells (clone E6-1), 200 ng/mL PMA + 300 ng/mL ionomycin, 48 hours, IL-2 by ELISA

SMILES	IC50 [nM]
CN(C(=O)N1CCC(C)(O)CC1)[C@@H](c1ccc(NC2Cc3ccccc3C2(C)C)cc1)C(F)(F)F (single isomer, unassigned) [Example 16]	250
CN(C(=O)N1CCC(C)(O)CC1)[C@@H](c1ccc(NC2Cc3ccccc3C2(C)C)cc1)C(F)(F)F (single isomer, unassigned) [Example 17]	2950
CN(C(=O)c1cc[nH]c(=O)c1)C(c1ccc(NC2Cc3ccccc3C2(C)C)nc1)C(F)(F)F (single isomer, unassigned) [Example 100, N-(1-(6-((1,1-Dimethyl-2,3-dihydro-1H-inden-2-yl)amino)pyridin-3-yl)-2,2,2-trifluoroethyl)-N-methyl-2-oxo-1,2-dihydropyridine-4-carboxamide]	850
CN(C(=O)c1cc[nH]c(=O)c1)C(c1ccc(NC2Cc3ccccc3C2(C)C)nc1)C(F)(F)F (single isomer, unassigned) [Example 101, N-(1-(6-((1,1-Dimethyl-2,3-dihydro-1H-inden-2-yl)amino)pyridin-3-yl)-2,2,2-trifluoroethyl)-N-methyl-2-oxo-1,2-dihydropyridine-4-carboxamide]	2640
